Results on 12 compounds are retold here after ChEMBL document CHEMBL1201862, “PubChem BioAssay data set” (2004).

Some test systems named below: A549; ACHN; CAKI-1; CCRF-CEM; COLO 205; IGROV-1; MDA-N; MOLT-4; NCI-H522; OVCAR-3; OVCAR-5; OVCAR-8; PC-3; SF-539; SK-MEL-28; SK-MEL-2; SNB-19; UACC-62; HOP-92; MCF7.
Test in all cases: DTP human tumour cell line panel, 48 h

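Growth conditions: 96-well plates. Treatment: test compound, 48 hours, 5 concentrations. Analysis: linear interpolation between bracketing concentrations; unreached endpoints set to highest concentration. GI50: concentration for 50% inhibition of growth.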 Active and inactive are the calls of the source. No stated cut-off is given here; in the data, active = GI50 up to about 1.1 µM and inactive = higher.

On to `CSc1nc(-c2cc3c(c(SC)n2)CCCCC3)cc2c1CCCCC2`, for which the GI50 (commonly the concentration at which growth is held to half of that of the control) was > 100 µM (inactive) in the experiment with A549; > 100 µM (inactive) with ACHN; > 100 µM (inactive) in the experiment with CAKI-1; > 100 µM (inactive) in the experiment with CCRF-CEM; > 100 µM (inactive) in the experiment on COLO 205; 22.8 µM (inactive) in the experiment with IGROV-1. In addition, the GI50 is > 100 µM (inactive) with MDA-N; > 100 µM (inactive) in the experiment on MOLT-4; 7.67 µM (inactive) with NCI-H522; > 100 µM (inactive) with OVCAR-3; > 100 µM (inactive) in the experiment with OVCAR-5; > 100 µM (inactive) in the experiment with OVCAR-8. Further, the GI50 with PC-3, with SF-539, with SK-MEL-28, in the experiment on SK-MEL-2, in the experiment with SNB-19 and in the experiment on UACC-62 was > 100 µM (inactive) in each case.
As for `CC(=O)Oc1cc(Cl)c(C)c2c1[C@H]1CC[C@]3(C)[C@@H](OC(C)=O)CC[C@H]3[C@@H]1CC2`, the GI50 was > 100 µM (inactive) with A549; > 100 µM (inactive) in the experiment with ACHN; > 100 µM (inactive) in the experiment with CCRF-CEM; > 100 µM (inactive) in the experiment with HOP-92; > 100 µM (inactive) in the experiment with IGROV-1; 83.4 µM (inactive) in the experiment with MCF7. For the same compound, the GI50 in the experiment with MDA-N was > 100 µM (inactive); in the experiment with MOLT-4, 78.2 µM (inactive); in the experiment with NCI-H522, > 100 µM (inactive); in the experiment with OVCAR-3, > 100 µM (inactive); in the experiment with OVCAR-5 it was > 100 µM (inactive); in the experiment on OVCAR-8, > 100 µM (inactive). Moreover, the GI50 in the experiment on SF-539 was > 100 µM (inactive); in the experiment on SK-MEL-28 it was > 100 µM (inactive); with SNB-19 it was > 100 µM (inactive); in the experiment with UACC-62, 35 µM (inactive).
On to `N=c1oc2cc(O)ccc2cc1C(=O)Nc1ccccn1`, for which the GI50 in the experiment with A549 is > 100 µM (inactive); in the experiment on ACHN, 23.4 µM (inactive); in the experiment on CAKI-1, 51.9 µM (inactive); in the experiment with CCRF-CEM it was 27.8 µM (inactive); in the experiment with COLO 205, 14 µM (inactive); in the experiment on HOP-92, > 100 µM (inactive). The GI50 in the experiment with IGROV-1 was 44.9 µM (inactive); in the experiment on MCF7, 14.9 µM (inactive); in the experiment with MOLT-4, 1.78 µM (inactive); with NCI-H522, 3.43 µM (inactive); with OVCAR-3, 72.4 µM (inactive); with OVCAR-5 it was > 100 µM (inactive). Moreover, the GI50 with OVCAR-8 was 32.2 µM (inactive); with PC-3, 40.1 µM (inactive); in the experiment with SF-539, 92.9 µM (inactive); with SK-MEL-28, 76.7 µM (inactive); in the experiment on SK-MEL-2, 28.8 µM (inactive); with SNB-19, 92.9 µM (inactive). For the same compound, the GI50 in the experiment with UACC-62 is 32.4 µM (inactive).
As for `O=C1CC(c2ccccc2Cl)Oc2ccccc21` (stereo not drawn), the GI50 in the experiment with CAKI-1 is 40.9 µM (inactive); with CCRF-CEM it was 33.9 µM (inactive); in the experiment with COLO 205 it was 25.4 µM (inactive); in the experiment on HOP-92, 25 µM (inactive); in the experiment on IGROV-1 it was 21.4 µM (inactive); in the experiment with MCF7 it was 11.4 µM (inactive). The GI50 with OVCAR-8 is 26.4 µM (inactive); in the experiment with PC-3, 31.3 µM (inactive); in the experiment on SF-539, 16 µM (inactive); in the experiment on SK-MEL-28, > 100 µM (inactive); with SK-MEL-2 it was 19.9 µM (inactive); with SNB-19, 34.9 µM (inactive). Further, the GI50 with UACC-62 was 45.3 µM (inactive).
For the compound `Nn1c(Cc2ccc(Cl)cc2)n[nH]c1=O`, the GI50 is > 100 µM (inactive) in the experiment with A549; > 100 µM (inactive) in the experiment with ACHN; 50.5 µM (inactive) with CAKI-1; > 100 µM (inactive) with CCRF-CEM; > 100 µM (inactive) in the experiment with COLO 205; > 100 µM (inactive) in the experiment on HOP-92. Moreover, the GI50 with IGROV-1, in the experiment with MDA-N, in the experiment with MOLT-4, in the experiment on NCI-H522, with OVCAR-3 and in the experiment on OVCAR-5 was > 100 µM (inactive) in each case. Moreover, the GI50 in the experiment on OVCAR-8, in the experiment with SF-539, in the experiment on SK-MEL-28, in the experiment on SK-MEL-2, in the experiment on SNB-19 and in the experiment with UACC-62 was > 100 µM (inactive) throughout.
In the case of `COc1cc(/C=N\O)nc(-c2ccccn2)c1`, the 50% growth inhibitory concentration (GI50) in the experiment with A549 was 0.344 µM (active); in the experiment with ACHN, 0.0923 µM (active); with CAKI-1, 0.303 µM (active); in the experiment on CCRF-CEM, 0.175 µM (active); in the experiment with COLO 205 it was 0.188 µM (active); in the experiment on HOP-92, 1.44 µM (inactive). Also, the GI50 in the experiment on IGROV-1 was 0.202 µM (active); in the experiment on MCF7, 0.474 µM (active); with MOLT-4 it was 0.173 µM (active); in the experiment on NCI-H522 it was 0.129 µM (active); in the experiment with OVCAR-3 it was 0.222 µM (active); in the experiment with OVCAR-5, 3.08 µM (inactive). For the same compound, the GI50 with OVCAR-8 was 0.2 µM (active); in the experiment with PC-3 it was 2.43 µM (inactive); with SF-539, 0.575 µM (active); in the experiment on SK-MEL-28, 0.729 µM (active); with SNB-19, 1.11 µM (active); with UACC-62, 0.448 µM (active).
Consider `O=C(/C=C/c1ccccc1)CCC1C(=O)NC(=S)NC1=O`, for which the GI50 in the experiment with A549 is > 100 µM (inactive); in the experiment with ACHN, > 100 µM (inactive); in the experiment with CAKI-1, 26.5 µM (inactive); in the experiment with COLO 205 it was > 100 µM (inactive); in the experiment with HOP-92, > 100 µM (inactive); with MOLT-4, > 100 µM (inactive). Moreover, the GI50 in the experiment on OVCAR-3, in the experiment with OVCAR-5, in the experiment on OVCAR-8, in the experiment with PC-3, with SF-539 and in the experiment on SK-MEL-28 was > 100 µM (inactive) throughout. The GI50 in the experiment on SK-MEL-2, in the experiment with SNB-19 and with UACC-62 was > 100 µM (inactive) each time.
`CCOC(=O)C(=O)Nc1ccccc1C(C)C`: the GI50 with A549, in the experiment on ACHN, with CAKI-1, in the experiment with CCRF-CEM, in the experiment with COLO 205 and in the experiment on HOP-92 was > 100 µM (inactive) each time. Moreover, the GI50 in the experiment with IGROV-1, with MOLT-4, in the experiment on NCI-H522, in the experiment on OVCAR-3, in the experiment with OVCAR-5 and in the experiment on OVCAR-8 was > 100 µM (inactive) each time. Further, the GI50 in the experiment on SF-539, in the experiment with SK-MEL-28, in the experiment with SK-MEL-2, with SNB-19 and in the experiment with UACC-62 was > 100 µM (inactive) throughout.
Regarding `N#CI1OC(C(F)(F)F)(C(F)(F)F)c2ccccc21`, the GI50 was 62.5 µM (inactive) in the experiment on A549; 18.2 µM (inactive) in the experiment on ACHN; 14.1 µM (inactive) in the experiment with CAKI-1; 18.7 µM (inactive) in the experiment with CCRF-CEM; 12.9 µM (inactive) in the experiment on COLO 205; 16.3 µM (inactive) with HOP-92. Besides, the GI50 in the experiment with IGROV-1 is 16.4 µM (inactive); in the experiment with MCF7, 18.9 µM (inactive); in the experiment on NCI-H522, 7.19 µM (inactive); in the experiment with OVCAR-3, 15.7 µM (inactive); in the experiment with OVCAR-5, 19.2 µM (inactive); in the experiment on OVCAR-8 it was 16.3 µM (inactive). The GI50 was 15.8 µM (inactive) in the experiment on PC-3; 19.9 µM (inactive) with SF-539; 15.5 µM (inactive) in the experiment on SK-MEL-28; 16.1 µM (inactive) in the experiment on SK-MEL-2; 18.4 µM (inactive) in the experiment with UACC-62.
As to `Cc1ccccc1NC(=O)/C(=N/NC(=O)CC#N)C1C(=O)N(c2ccccc2)N=C1N` (stereo not drawn), the GI50 in the experiment with A549 was > 100 µM (inactive); with ACHN, 60.1 µM (inactive); with CAKI-1, > 100 µM (inactive); in the experiment on CCRF-CEM, 31.3 µM (inactive); with COLO 205, > 100 µM (inactive); with HOP-92 it was 36.5 µM (inactive). Further, the GI50 with IGROV-1 was > 100 µM (inactive); in the experiment on MOLT-4 it was 72.9 µM (inactive); with NCI-H522 it was 57.1 µM (inactive); in the experiment with OVCAR-3 it was > 100 µM (inactive); in the experiment with OVCAR-5 it was > 100 µM (inactive); in the experiment on OVCAR-8 it was > 100 µM (inactive). Also, the GI50 in the experiment with SF-539, in the experiment with SK-MEL-28, in the experiment with SK-MEL-2, in the experiment with SNB-19 and with UACC-62 was > 100 µM (inactive) each time.
As to `O=S1(=O)N2CN3CN(C2)CN1C3`, the GI50 was 280 µM (inactive) in the experiment on A549; 108 µM (inactive) with ACHN; 205 µM (inactive) with CAKI-1; > 31.6 µM (inactive) in the experiment on CCRF-CEM; 25.4 µM (inactive) with COLO 205; > 100 µM (inactive) in the experiment with HOP-92. Further, the GI50 is 278 µM (inactive) in the experiment with IGROV-1; 56.8 µM (inactive) in the experiment with MCF7; 105 µM (inactive) with MOLT-4; 177 µM (inactive) in the experiment with NCI-H522; > 10 µM (inactive) with OVCAR-3; 208 µM (inactive) with OVCAR-5. Moreover, the GI50 was > 86.5 µM (inactive) with OVCAR-8; > 100 µM (inactive) in the experiment on SF-539; > 83.6 µM (inactive) in the experiment on SK-MEL-28; 141 µM (inactive) with SK-MEL-2; 238 µM (inactive) in the experiment with SNB-19; 22.6 µM (inactive) in the experiment with UACC-62.
In the case of `CC1=CP(=O)(OC(C)C)CC(C)=C1Cl` (stereo not drawn), the GI50 in the experiment on A549 was > 100 µM (inactive); in the experiment with ACHN, > 100 µM (inactive); with CAKI-1 it was > 100 µM (inactive); in the experiment on CCRF-CEM, 34.4 µM (inactive); in the experiment on COLO 205 it was > 100 µM (inactive); in the experiment with HOP-92, > 100 µM (inactive). The GI50 was > 100 µM (inactive) in the experiment on IGROV-1; 32.7 µM (inactive) with MOLT-4; 52.6 µM (inactive) in the experiment with NCI-H522; > 100 µM (inactive) in the experiment with OVCAR-3; > 100 µM (inactive) in the experiment with OVCAR-5; > 100 µM (inactive) in the experiment with OVCAR-8. For the same compound, the GI50 in the experiment with SF-539 is 95.1 µM (inactive); in the experiment with SK-MEL-28 it was > 100 µM (inactive); with SK-MEL-2, > 100 µM (inactive); in the experiment with SNB-19, > 100 µM (inactive); in the experiment on UACC-62 it was > 100 µM (inactive).
